Experimental data reported in ChEMBL document CHEMBL1201862, “PubChem BioAssay data set” (2004).
Activity calls are given as the source filed them.

Columns and labels:
[1] = molecular target: Latent membrane protein 1 (Human herpesvirus 4 (strain B95-8), UniProt P03230); assay: TES1-eGFP NF-kB reporter inhibition versus Tet-On dsRED, dose response, selectivity assay for LMP1 NF-kB inhibitor project, imaging, HEK293T, dual-color eGFP/dsRED, cherry-picks (AID 588398); format: functional, cell-based
Latent membrane protein 1, sequence (P03230 whole entry): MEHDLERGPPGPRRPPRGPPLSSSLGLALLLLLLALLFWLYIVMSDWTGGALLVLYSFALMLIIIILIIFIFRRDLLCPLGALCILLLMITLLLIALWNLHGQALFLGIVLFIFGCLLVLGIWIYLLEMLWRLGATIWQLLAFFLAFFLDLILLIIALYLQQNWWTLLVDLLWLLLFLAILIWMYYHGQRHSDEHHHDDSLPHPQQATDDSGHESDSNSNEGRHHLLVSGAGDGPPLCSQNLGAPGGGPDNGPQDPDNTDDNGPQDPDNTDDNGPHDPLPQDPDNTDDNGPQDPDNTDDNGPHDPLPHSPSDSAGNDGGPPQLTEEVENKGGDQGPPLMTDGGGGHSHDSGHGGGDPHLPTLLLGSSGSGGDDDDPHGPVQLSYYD

[2] = molecular target: Botulinum neurotoxin type F (Clostridium botulinum, UniProt P30996); assay: High-throughput multiplex microsphere dose response for inhibitors of toxin protease, specifically Botulinum neurotoxin light chain F protease, compounds from Cherry Pick 02.; format: functional; settings: read-out: EC50_MICROM
Botulinum neurotoxin type F, sequence (P30996 1-436 limits assumed): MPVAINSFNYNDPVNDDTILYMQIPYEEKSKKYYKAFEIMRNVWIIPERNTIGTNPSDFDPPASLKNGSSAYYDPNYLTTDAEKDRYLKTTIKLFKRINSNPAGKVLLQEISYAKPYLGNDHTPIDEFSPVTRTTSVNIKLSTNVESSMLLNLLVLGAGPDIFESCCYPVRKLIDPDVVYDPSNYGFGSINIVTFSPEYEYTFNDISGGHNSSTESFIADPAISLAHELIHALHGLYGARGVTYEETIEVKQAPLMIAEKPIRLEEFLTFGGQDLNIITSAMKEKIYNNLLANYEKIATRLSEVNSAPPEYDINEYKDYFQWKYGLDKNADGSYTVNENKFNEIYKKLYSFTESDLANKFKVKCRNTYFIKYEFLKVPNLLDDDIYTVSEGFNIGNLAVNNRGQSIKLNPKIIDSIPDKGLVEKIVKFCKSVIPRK

[3] = molecular target: T1, Sentrin-specific protease 1 (Homo sapiens, UniProt Q9P0U3); assay: potency of human SENP1 inhibitors, dose response, biochemical, kinetic FRET (AID 651697); format: functional; settings: read-out: IC50_Mean
T1 sequence (Q9P0U3 whole entry): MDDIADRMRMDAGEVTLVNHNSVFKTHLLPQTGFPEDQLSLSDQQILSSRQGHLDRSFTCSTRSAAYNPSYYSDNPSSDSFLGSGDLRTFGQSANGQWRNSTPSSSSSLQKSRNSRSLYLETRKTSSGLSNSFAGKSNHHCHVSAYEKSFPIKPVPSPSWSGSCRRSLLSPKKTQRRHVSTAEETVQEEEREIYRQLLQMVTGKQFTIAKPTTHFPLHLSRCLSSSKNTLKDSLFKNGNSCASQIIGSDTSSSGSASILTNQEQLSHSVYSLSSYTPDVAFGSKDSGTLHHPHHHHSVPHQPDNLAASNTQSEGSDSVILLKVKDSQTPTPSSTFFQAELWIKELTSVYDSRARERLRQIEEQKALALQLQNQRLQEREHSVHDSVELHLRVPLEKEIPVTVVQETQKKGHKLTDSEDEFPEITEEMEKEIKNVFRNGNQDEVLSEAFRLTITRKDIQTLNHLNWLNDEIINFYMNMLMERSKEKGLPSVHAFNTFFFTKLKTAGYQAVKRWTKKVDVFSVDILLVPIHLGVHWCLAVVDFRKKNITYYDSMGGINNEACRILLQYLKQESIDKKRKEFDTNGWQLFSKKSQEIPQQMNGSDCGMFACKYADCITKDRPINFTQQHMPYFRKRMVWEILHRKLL

[4] = molecular target: T2, Endoribonuclease toxin MazF (Escherichia coli K-12, UniProt P0AE70); assay: MazF toxin RNase activators, dose response, biochemical, fluorescence, single-stranded RNA substrate, uHTS hits (AID 588481); format: functional
T2 sequence (P0AE70 whole entry): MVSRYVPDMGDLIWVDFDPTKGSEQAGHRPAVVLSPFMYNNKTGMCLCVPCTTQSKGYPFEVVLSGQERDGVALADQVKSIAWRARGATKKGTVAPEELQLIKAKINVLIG

[5] = molecular target: T2, Endoribonuclease toxin MazF; assay: fluorescent RNA oligo signal without MazF, dose response, counter-screen for MazEF activator project, biochemical, fluorescence, single-stranded RNase substrate (AID 588502); format: functional
[6] = molecular target: T1, Sentrin-specific protease 1; assay: Dose response confirmation of small molecule inhibitors of the catalytic domain of the SUMO protease, SENP1 in a FRET assay.; format: functional; settings: read-out: IC50_Mean
[7] = molecular target: T3, DNA repair protein RAD52 homolog (Homo sapiens, UniProt P43351); format: functional, biochemical
T3 sequence (P43351 whole entry): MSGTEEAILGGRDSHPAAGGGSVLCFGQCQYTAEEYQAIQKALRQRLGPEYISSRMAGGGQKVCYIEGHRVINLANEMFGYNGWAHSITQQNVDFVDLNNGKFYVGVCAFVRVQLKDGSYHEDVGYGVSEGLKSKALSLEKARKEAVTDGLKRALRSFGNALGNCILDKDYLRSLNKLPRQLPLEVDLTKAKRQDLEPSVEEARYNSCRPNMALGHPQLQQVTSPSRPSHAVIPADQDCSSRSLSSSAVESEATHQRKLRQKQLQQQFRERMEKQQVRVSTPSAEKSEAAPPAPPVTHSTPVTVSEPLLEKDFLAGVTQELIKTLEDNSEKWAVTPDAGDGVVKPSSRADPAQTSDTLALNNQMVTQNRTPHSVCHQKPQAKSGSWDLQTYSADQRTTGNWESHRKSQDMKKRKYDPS

[8] = Counterscreen for activators of the function of SWI/SNF related, matrix associated, actin dependent regulator of chromatin, subfamily a, member 2 (SMARCA2, BRM): Luminescence-based cell-based high throughput dose response assay to identify non-selective compounds using the VP16 reporter assay.; format: functional
[9] = molecular target: T4, DNA repair and recombination protein RAD54-like (Homo sapiens, UniProt Q92698); assay: inhibitors of human RAD54 branch migration, confirmation, biochemical, fluorescence, cherry-picked samples, dose series (AID 651657); format: functional
T4 sequence (Q92698 whole entry): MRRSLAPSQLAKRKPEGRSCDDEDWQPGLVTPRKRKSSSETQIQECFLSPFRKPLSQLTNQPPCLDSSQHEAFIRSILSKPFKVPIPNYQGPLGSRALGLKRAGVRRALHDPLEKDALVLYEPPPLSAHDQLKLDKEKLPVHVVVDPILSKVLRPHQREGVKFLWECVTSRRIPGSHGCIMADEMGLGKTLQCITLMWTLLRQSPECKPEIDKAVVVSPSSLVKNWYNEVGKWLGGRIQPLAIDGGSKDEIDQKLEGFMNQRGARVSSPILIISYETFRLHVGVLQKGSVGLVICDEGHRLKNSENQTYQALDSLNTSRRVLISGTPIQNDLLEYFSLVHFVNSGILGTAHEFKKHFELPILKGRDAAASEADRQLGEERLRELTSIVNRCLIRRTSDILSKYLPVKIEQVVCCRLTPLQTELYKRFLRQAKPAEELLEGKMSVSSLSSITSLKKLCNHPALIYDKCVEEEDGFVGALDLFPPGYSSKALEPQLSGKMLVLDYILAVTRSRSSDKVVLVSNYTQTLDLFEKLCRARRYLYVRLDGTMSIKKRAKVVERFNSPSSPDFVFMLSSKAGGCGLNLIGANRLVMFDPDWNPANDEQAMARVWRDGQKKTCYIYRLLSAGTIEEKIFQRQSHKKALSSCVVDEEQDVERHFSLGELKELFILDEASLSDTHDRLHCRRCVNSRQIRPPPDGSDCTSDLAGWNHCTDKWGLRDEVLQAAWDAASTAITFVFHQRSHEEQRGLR

[10] = molecular target: T5, Low molecular weight phosphotyrosine protein phosphatase (Homo sapiens, UniProt P24666); format: functional; settings: read-out: IC50_Mean
T5 sequence (P24666 whole entry): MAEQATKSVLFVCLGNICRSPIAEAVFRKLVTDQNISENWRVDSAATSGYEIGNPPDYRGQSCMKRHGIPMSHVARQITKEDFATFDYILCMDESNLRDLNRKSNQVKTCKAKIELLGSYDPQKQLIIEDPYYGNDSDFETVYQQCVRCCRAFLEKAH

[11] = molecular target: T5, Low molecular weight phosphotyrosine protein phosphatase; format: functional; settings: read-out: IC50_Mean; remark: listed apart in the source
[12] = molecular target: Tyrosine-protein phosphatase non-receptor type 22 (Homo sapiens, UniProt Q9Y2R2); assay: LYP phosphatase inhibition for selectivity, dose response, selectivity assay for LMPTP inhibitor project, biochemical, fluorescence, LYP catalytic domain (AID 652006); format: functional; settings: read-out: IC50_Mean
Tyrosine-protein phosphatase non-receptor type 22, sequence (Q9Y2R2 whole entry, the tested form may be a part): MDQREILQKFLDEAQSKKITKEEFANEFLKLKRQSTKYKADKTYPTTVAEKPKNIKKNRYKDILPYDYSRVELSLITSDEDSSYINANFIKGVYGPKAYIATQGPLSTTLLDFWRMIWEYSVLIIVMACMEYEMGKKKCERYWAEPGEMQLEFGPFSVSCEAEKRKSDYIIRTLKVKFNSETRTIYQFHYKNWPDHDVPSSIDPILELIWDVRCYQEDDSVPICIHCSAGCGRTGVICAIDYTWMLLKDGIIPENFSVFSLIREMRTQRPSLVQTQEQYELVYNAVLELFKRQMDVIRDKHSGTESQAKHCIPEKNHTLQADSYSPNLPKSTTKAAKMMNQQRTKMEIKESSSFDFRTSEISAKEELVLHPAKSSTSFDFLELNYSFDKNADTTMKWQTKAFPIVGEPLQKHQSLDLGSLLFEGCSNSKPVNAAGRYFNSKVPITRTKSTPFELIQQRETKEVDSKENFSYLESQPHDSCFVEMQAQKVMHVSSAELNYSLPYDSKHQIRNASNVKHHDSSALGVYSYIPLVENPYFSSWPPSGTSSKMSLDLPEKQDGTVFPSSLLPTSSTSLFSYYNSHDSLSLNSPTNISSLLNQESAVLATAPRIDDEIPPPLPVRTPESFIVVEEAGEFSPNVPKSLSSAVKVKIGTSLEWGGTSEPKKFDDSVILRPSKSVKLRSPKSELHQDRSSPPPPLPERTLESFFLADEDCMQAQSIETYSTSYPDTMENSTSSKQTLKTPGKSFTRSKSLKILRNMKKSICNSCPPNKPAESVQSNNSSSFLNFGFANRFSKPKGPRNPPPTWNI

[13] = molecular target: SWI/SNF-related matrix-associated actin-dependent regulator of chromatin subfamily A member 2 (Homo sapiens, UniProt P51531); assay: Luminescence-based cell-based high throughput dose response assay to identify activators of the function of SWI/SNF related, matrix associated, actin dependent regulator of chromatin, subfamily a, member 2 (SMARCA2, BRM).; format: functional
SWI/SNF-related matrix-associated actin-dependent regulator of chromatin subfamily A member 2, sequence (P51531 whole entry): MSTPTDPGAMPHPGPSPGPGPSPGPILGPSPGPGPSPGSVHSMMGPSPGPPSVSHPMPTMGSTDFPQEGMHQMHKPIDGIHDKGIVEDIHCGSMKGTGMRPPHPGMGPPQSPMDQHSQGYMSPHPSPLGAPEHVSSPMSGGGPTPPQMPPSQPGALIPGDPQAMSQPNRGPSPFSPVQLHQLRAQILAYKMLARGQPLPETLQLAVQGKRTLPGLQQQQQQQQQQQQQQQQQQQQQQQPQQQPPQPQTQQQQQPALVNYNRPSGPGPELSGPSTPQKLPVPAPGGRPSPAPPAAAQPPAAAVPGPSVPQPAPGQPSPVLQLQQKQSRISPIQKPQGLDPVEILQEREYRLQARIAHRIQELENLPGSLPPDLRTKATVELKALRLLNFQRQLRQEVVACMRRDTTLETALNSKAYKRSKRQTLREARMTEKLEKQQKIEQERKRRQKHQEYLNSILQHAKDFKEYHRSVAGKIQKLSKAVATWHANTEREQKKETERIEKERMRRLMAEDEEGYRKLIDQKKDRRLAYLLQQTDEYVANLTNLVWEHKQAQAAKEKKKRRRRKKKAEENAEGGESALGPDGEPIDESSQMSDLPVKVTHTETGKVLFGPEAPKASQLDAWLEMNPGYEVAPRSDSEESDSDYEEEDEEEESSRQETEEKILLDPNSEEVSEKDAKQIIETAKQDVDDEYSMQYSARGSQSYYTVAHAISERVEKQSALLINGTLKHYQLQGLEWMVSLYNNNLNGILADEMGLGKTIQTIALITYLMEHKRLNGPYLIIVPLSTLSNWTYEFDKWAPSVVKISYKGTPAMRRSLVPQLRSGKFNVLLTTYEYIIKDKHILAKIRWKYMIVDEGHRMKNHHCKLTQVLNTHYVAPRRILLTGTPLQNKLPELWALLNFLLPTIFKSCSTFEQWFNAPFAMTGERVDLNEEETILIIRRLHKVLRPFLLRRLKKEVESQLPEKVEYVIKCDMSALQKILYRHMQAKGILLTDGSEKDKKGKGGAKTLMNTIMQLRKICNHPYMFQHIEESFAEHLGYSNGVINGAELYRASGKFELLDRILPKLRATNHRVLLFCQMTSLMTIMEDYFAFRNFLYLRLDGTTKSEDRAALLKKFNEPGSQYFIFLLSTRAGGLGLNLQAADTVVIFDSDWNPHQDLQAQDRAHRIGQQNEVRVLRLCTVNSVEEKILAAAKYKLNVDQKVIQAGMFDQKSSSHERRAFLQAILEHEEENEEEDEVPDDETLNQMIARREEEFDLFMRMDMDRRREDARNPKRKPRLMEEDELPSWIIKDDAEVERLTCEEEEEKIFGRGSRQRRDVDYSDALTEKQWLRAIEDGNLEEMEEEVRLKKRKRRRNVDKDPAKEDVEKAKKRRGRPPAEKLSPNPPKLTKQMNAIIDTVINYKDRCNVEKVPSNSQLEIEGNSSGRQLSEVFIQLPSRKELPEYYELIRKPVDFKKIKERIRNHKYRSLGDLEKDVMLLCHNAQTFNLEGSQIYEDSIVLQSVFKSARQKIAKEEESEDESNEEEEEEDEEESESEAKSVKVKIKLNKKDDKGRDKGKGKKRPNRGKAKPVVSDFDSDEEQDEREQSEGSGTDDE

[14] = molecular target: T6, Diacylglycerol lipase-beta (Mus musculus, UniProt Q91WC9); assay: Late stage assay provider results from the probe development effort to identify inhibitors of diacylglycerol lipase, beta (DAGLb): LCMS-based biochemical dose response assay.; format: functional
T6 sequence (Q91WC9 whole entry): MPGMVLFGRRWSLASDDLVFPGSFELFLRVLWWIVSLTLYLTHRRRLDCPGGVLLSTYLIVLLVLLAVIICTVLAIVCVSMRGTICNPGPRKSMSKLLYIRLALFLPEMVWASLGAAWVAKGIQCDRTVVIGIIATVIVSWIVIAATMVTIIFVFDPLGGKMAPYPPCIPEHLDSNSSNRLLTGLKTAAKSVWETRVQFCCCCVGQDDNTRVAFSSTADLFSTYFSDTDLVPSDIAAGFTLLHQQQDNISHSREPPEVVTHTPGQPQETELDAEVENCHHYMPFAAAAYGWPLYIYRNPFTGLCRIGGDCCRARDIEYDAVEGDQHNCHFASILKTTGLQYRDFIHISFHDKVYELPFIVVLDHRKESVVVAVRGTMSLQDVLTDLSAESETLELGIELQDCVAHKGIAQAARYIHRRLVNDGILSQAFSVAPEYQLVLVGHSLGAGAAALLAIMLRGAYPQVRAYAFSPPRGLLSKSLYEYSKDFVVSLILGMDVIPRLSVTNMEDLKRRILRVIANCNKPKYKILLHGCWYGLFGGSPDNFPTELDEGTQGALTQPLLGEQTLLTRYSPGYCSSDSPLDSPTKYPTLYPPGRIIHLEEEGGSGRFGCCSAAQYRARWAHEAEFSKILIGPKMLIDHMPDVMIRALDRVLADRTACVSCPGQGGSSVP

[15] = molecular target: T6, Diacylglycerol lipase-beta; assay: Late stage assay provider results from the probe development effort to identify inhibitors of diacylglycerol lipase, beta (DAGLb): fluorescence-based dose-response biochemical gel-based competitive Activity-Based Protein Profiling (ABPP) inhibition of DAGLb in vitro.; format: functional
[16] = molecular target: Monoacylglycerol lipase ABHD6 (Mus musculus, UniProt Q8R2Y0); assay: Late stage assay provider results from the probe development effort to identify inhibitors of diacylglycerol lipase, beta (DAGLb): fluorescence-based dose-response biochemical gel-based competitive Activity-Based Protein Profiling (ABPP) inhibition of antitarget ABHD6 in vitro, set 2.; format: functional
Monoacylglycerol lipase ABHD6, sequence (Q8R2Y0 whole entry): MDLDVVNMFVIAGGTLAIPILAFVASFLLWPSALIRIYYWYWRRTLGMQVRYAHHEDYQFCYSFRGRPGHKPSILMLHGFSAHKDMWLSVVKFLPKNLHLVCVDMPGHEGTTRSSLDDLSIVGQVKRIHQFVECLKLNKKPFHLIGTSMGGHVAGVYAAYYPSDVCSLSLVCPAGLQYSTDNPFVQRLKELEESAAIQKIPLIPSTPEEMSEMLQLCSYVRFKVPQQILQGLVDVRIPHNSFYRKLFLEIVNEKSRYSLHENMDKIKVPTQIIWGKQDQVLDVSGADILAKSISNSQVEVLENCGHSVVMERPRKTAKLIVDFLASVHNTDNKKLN

## COc1ccc(C(=O)OCC(=O)c2c[nH]c3ccccc23)cc1OC
[1]
  AC50: 164 µM (active)
[2]
  EC50: > 20 µM (inactive)

## CN(N=Cc1cccc2cccnc12)c1ccc([N+](=O)[O-])cc1[N+](=O)[O-]
[3]
  IC50: 8.19 µM (active)
[4]
  EC50: > 99 µM (inactive)
[5]
  EC50: 3.55 µM (active)
[6]
  IC50: 4.08 µM (active)

## Cc1nccc2cc3[nH]c4ccccc4c3cc12
[7]
  AC50: 1.96 µM (active)
[8]
  EC50: > 91.2 µM (inactive)
[9]
  AC50: 2.49 µM (active)
[10]
  IC50: 2.59 µM (active)
[11]
  IC50: 3.18 µM (active)
[12]
  IC50: 52.5 µM (inactive)
[13]
  EC50: 5.87 µM (active)

## COc1ccccc1-c1ccc(-c2cn(C(=O)N3CCCCC3Cc3ccccc3)nn2)cc1 (stereo unspecified)
[14]
  IC50: 0.1 µM (active)
[15]
  IC50: 0.056 µM (active)
[16]
  IC50: 0.001 µM (active)
